In series [1] the test system is nerve cells from cerebellums of FVB mice. The experiment in a line: Analysis of toxicity of calpain inhibitors on cultured cerebellar nerve cells. It is filed as cell-based, mouse. The note with it: 16 hours, FIG. 24. Here is the method:
The cerebellums were removed from 4- to 5-day-old FVB mice (15 mice). In a Ca^2+-free Hank's Balanced Salt Solution (CF-HBSS; Ca^2+, Mg^2+-free Hank's Balanced Salt Solution (CMF-HBBS, Sigma) containing 5 mM magnesium chloride (MgCl2, Wako) and 4 mg/mL glucose (Wako)), the meninges were removed and cut into pieces. After the cerebellum fragments were washed with CF-HBSS, the fragments were allowed to stand for 20 minutes at 37° C. in CF-HBSS containing 0.025% trypsin (Invitrogen) and 6.25 μg/mL deoxyribonuclease (DNase, Sigma), and then centrifuged. The resulting tissues were washed with 10% HS/BME (DNase Medium; obtained by adding 5 mM MgCl2 and 25 μg/mL DNase to Basal Medium Eagle (BME, Invitrogen) containing 10% Horse Serum (HS, Invitrogen)) and centrifuged. DNase medium was added to the cells, and the cells were transferred to a 24-well plate (Nunc). The cells were kept still for 30 minutes at 37′C under an atmospheric environment of 5% CO2, thereby suspending the cells. The cell suspension was isolated, and then washed with 10% HS/BME. The suspension was transferred again to a 24-well plate to be cultured for 16 hours at 37° C. under an atmospheric environment of 5% CO2. The cells were collected to BME containing 1% Bovine Serum Albumin (BSA, Sigma) and 0.5% N2 supplement (Invitrogen), and the cell suspension was seeded on a 35 mm glass base dish (Iwaki) coated beforehand with poly-L-lysine (Sigma) and laminin (Sigma) in an amount of […]. The cells were cultured for 8 hours at 37° C. under an atmospheric environment of 5% CO2. The cultured nerve cells were used as test nerve cells.
A culture solution (10% HS/BME) containing SNJ-1945, E64d, or ALLN was prepared in the following manner. SNJ-1945 dissolved in dimethyl sulfoxide (Sigma, D-5879) was mixed with a culture solution so that the final concentration became 200 μM, and was kept still for an hour at 37° C., thereby completely dissolving SNJ-1945 in the culture medium. ALLN and E64d were also dissolved in culture media in the same manner, except that ALLN and E64d were added to the culture media to final concentrations of 50 μM and 100 μM, respectively. The culture media in which the components were dissolved were added to the test nerve cells prepared above in an amount of 2 ml/well, and the cells were cultured for 16 hours. As a control, the same culture was conducted using a culture medium containing the same amount of dimethyl sulfoxide (Sigma, D-5879). After culture, the cells were observed using an inverted microscope (TCS FP5S, Leica). A 20× objective lens was used. Images were taken using dedicated software (LAS AF, Leica) under the condition of 512×512 pixels.

The test system of series [2] is cells with LIS1 gene heterozygous mutation (Lis1+/−). The note with it: Lis1+/− cells treated with ALLN, NPL 1; cited from earlier work.
For series [3], the target named is T1, μ-calpain (derived from human red blood cells) (Homo sapiens, UniProt P07384).
T1 construct: derived from human red blood cells; purchased Cosmo Bio Co., Ltd; host or cells: human red blood cells (tissue-purified)
T1 sequence (P07384 1-714): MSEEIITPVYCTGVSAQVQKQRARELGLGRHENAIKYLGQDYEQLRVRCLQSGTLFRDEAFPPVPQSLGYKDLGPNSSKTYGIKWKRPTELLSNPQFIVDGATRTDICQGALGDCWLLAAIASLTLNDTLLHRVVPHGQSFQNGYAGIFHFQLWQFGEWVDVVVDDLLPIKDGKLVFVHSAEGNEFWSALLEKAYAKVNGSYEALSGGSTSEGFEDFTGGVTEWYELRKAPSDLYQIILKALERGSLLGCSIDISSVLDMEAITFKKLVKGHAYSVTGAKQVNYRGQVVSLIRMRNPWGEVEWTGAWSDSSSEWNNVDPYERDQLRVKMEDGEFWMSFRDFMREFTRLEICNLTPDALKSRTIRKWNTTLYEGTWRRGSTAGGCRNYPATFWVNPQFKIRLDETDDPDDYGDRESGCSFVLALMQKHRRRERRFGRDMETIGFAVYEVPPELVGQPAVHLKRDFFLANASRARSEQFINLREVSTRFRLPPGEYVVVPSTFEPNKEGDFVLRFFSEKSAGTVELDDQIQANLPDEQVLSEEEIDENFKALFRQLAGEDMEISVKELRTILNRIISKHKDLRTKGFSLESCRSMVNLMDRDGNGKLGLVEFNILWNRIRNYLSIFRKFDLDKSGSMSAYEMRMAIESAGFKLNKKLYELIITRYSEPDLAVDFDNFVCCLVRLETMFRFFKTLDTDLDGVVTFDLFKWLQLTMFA
T1 sequence (P04632 1-268 partner): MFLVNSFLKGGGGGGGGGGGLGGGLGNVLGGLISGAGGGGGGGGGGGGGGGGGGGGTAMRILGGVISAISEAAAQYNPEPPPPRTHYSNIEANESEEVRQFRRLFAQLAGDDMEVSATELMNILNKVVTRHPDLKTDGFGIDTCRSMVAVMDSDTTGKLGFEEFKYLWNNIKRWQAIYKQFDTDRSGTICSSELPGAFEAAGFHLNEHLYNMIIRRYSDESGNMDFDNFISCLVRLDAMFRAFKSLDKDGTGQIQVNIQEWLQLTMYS
Description: Measurement of inhibitory activity against μ-calpain. It is filed as biochemical. The note with it: casein substrate, 30° C., 60 minutes; read-out: enzyme inhibitory activities (μM) μ-calpain. The protocol: (§1) The inhibitory activity against μ-calpain and m-calpain was assayed according to a published method (Anal. Biochem. 1993, vol. 208, p. 387-392). More specifically, 200 μL of a reaction solution containing 0.5 mg/mL casein, 50 mM Tris-HCl buffer (pH 7.4), 20 mM dithiothreitol and 1.0 nmol μ-calpain (derived from human red blood cells, Cosmo Bio Co., Ltd.) or m-calpain (derived from porcine kidney, Cosmo Bio Co., Ltd.) was added to individual 2.5 μL portions of DMSO solution containing a varying concentration of a test sample in a 96-well plate. Then, 50 μL of 20 mM aqueous calcium chloride was added thereto, and reaction was performed at 30° C. for 60 minutes. 100 μL of the reaction solution was transferred to another 96-well plate, and purified water (50 μL) and 50% aqueous solution (100 μL) of Protein Assay Dye Reagent (available from Bio-Rad Laboratories, Inc.; catalogue No. 500-600) were added thereto. The reaction mixture was allowed to stand at room temperature for 15 minutes, and its absorbance was measured at 595 nm. The absorbance of a reaction mixture prepared in the same manner as mentioned above, except that a DMSO solution containing no sample was used as a control value; and the absorbance of a reaction mixture prepared in the same manner as mentioned above, except that a 1 mM aqueous EDTA solution (50 μL) was used in place of 20 mM aqueous calcium chloride, was used as a blank value. […] Inhibition rate (%){1−(measured value−blank test value)/(control value−blank test value)}×100
The concentrations (IC50) are shown in Table 1 as enzyme (calpain) inhibitory activities (μM).

In series [4] the target is m-calpain (derived from porcine kidney) (Sus scrofa, UniProt I3LQD3). Description: Measurement of inhibitory activity against m-calpain. It is filed as biochemical. The note with it: casein substrate, 30° C., 60 minutes; read-out: enzyme inhibitory activities (μM) m-calpain. The protocol:
as §1, with “More” for “The inhibitory activity against μ-calpain and m-calpain was assayed according to a published method (Anal. Biochem. 1993, vol. 208, p. 387-392). More”, “The reaction mixture was allowed to stand at room temperature for 15 minutes, and its absorbance was measured at 595 nm.” left out

Results on six compounds are retold here after patent US9539298B2, “Lissencephaly therapeutic agent” (OSAKA CITY UNIVERSITY, priority 2010, dated 2017).

Non-standard residues stand in square brackets, D forms with d. Residues, ends and D or L forms follow the SMILES beside them. Nle = CCCC[CH](N)C(=O)O

Chain of m-calpain (derived from porcine kidney) (I3LQD3 entry or part of it): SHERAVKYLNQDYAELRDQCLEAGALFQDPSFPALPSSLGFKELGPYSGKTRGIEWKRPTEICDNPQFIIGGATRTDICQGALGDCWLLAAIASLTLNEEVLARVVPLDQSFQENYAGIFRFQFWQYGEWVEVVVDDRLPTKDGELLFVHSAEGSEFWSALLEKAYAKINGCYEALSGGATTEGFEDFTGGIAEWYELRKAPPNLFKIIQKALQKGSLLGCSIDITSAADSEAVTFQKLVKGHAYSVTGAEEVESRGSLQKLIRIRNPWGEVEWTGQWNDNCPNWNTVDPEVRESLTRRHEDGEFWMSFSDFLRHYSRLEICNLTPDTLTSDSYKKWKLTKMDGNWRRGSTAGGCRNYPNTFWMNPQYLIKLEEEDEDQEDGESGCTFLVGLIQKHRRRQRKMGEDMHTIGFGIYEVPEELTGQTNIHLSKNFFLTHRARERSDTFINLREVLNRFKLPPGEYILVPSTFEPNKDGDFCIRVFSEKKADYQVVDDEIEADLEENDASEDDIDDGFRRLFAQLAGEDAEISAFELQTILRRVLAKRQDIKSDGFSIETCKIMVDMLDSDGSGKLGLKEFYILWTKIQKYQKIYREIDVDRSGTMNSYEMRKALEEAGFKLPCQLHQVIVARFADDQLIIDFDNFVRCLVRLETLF
Chain of m-calpain (derived from porcine kidney) (P04574 whole entry, further chain): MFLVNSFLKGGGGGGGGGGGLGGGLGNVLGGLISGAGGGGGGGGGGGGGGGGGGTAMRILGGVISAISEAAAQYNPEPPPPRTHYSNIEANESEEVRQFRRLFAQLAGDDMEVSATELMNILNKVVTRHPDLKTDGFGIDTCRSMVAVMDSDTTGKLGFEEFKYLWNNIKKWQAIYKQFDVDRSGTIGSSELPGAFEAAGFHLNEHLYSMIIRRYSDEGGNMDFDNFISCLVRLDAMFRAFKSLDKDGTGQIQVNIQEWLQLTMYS

As for `CCCCC(C=O)NC(=O)C(CC(C)C)NC(=O)C(CC(C)C)NC(C)=O` (stereo not drawn) [ALLN, N-Acetyl-Leu-Leu-Nle-CHO] (Ac-Leu-Leu-[Nle]-aldehyde; configuration not given here), the “neurite elongation and cell migration (cytotoxicity)” value in series [1] (50 μM) was “the cells were roundly aggregated, neurite elongation was hardly observed, the cells remained accumulated in the center, and migration was hardly observed”. In series [2], the LIS1 protein expression result was “increased LIS1 protein expression” and the neuronal migration result was “restored neuronal migration”.

As for `CCOC(=O)[C@H]1O[C@@H]1C(=O)N[C@@H](CC(C)C)C(=O)NCCC(C)C` [E64d, reference compound], the “neurite elongation and cell migration (cytotoxicity)” value in series [1] (100 μM) is recorded as “the cells were aggregated in the center, many cells were incapable of neurite elongation, little migration was observed compared with the control”.

Turning to `COCCOC(=O)N[C@@H](CC(C)C)C(=O)N[C@@H](Cc1ccccc1)C(=O)C(=O)NC1CC1` [compound 4, ((1S)-1-((((1S)-1-Benzyl-2,3-dioxo-3-(cyclopropylamino)propyl)amino)carbonyl)-3-methylbutyl)carbamic acid 2-methoxyethyl ester], the melting point – broadly, the temperature, or range, at which the solid turns liquid – lay in the range of 112.4 to 113.5 °C. Moreover, the IC50 in series [3] amounted to 0.11 µM.

Consider `COCCOCCOCCOC(=O)N[C@@H](CC(C)C)C(=O)N[C@@H](Cc1ccccc1)C(=O)C(=O)NC1CC1` [compound 18, ((1S)-1-((((1S)-1-Benzyl-2,3-dioxo-3-(cyclopropylamino)propyl)amino)carbonyl)-3-methylbutyl)carbamic acid 8-methoxy-3,6-dioxaoctyl ester], for which the IC50 in series [3] is 0.19 µM.

`COCCOCCOCCOCCOC(=O)N[C@@H](CC(C)C)C(=O)N[C@@H](Cc1ccccc1)C(=O)C(=O)NC1CC1` [compound 19, ((1S)-1-((((1S)-1-Benzyl-2,3-dioxo-3-(cyclopropylamino)propyl)amino)carbonyl)-3-methylbutyl)carbamic acid 11-methoxy-3,6,9-trioxaundecanyl ester] yielded a melting point of 97.5 to 98.5 °C. In addition, the IC50 in series [4] stood at 0.17 µM. The IC50 in series [3] is 0.22 µM.

As to `COCCOCCOCCOCCOCCOC(=O)N[C@@H](CC(C)C)C(=O)N[C@@H](Cc1ccccc1)C(=O)C(=O)NC1CC1` [compound 20, ((1S)-1-((((1S)-1-Benzyl-2,3-dioxo-3-(cyclopropylamino)propyl)amino)carbonyl)-3-methylbutyl)carbamic acid 14-methoxy-3,6,9,12-tetraoxatetradecanyl ester], the melting point was 98.5 to 99.9 °C. The IC50 in series [4] was found to be 0.19 µM. Also, the IC50 in series [3] is 0.42 µM.
